Eight compounds from PMC6536313 (Bioorganic & medicinal chemistry, 2019) can be followed below.

One test has as its target σ2 receptor (σ2R) (Homo sapiens, UniProt Q5BJF2). As to the kind of experiment: Sigma-2 receptor radioligand binding. The settings on record: for σ2R pKi ± SEM: Mean ± SEM.
The next test deals with σ1 receptor (σ1R) (Homo sapiens, UniProt Q99720). As to the kind of experiment: Sigma-1 receptor radioligand binding.
Setting [1] is: on removal of both chloro and fluoro substituents (ether analogs 13-15).

Chain of σ2 receptor (σ2R) (Q5BJF2 whole entry, species assumed): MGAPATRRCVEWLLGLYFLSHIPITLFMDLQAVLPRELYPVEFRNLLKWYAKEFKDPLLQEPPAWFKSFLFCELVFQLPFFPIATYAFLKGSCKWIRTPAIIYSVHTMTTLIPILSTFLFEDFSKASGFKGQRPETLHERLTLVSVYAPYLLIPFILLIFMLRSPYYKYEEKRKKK
Chain of σ1 receptor (σ1R) (Q99720 whole entry, species assumed): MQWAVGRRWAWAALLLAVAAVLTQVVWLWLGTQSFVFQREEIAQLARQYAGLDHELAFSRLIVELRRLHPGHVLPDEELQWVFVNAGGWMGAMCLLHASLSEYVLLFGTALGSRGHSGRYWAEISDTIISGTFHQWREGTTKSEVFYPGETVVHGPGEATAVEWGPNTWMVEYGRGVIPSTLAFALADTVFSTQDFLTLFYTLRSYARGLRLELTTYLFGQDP

For the compound `O=C(CCCN1CCCN(c2ccccn2)CC1)c1ccc(F)cc1` [Compound 3, 1-(4-fluorophenyl)-4-(4-(pyridin-2-yl)-1,4-diazepan-1-yl)butan-1-one], at σ2 receptor (σ2R), the “σ2R pKi ± SEM” value turned out to be 7.49 ± 0.09. For `Fc1ccc(CCCCN2CCCN(c3ccc(Cl)cc3)CC2)cc1` [Compound 5], the “σ2R pKi ± SEM” value at σ2 receptor (σ2R) amounted to 8.07 ± 0.06.

For the compound `Fc1ccc(SCCCN2CCCN(c3ccc(Cl)cn3)CC2)cc1` [Compound 7, 1-(5-chloropyridin-2-yl)-4-(3-((4-fluorophenyl)thio)propyl)-1,4-diazepane], on σ2 receptor (σ2R), the “σ2R pKi ± SEM” value is 8.65 ± 0.05. Same read-out and setting: the result for `Fc1ccc(CCCCN2CCN(c3ccc(Cl)cn3)CC2)cc1` [Compound 10, 1-(5-chloropyridin-2-yl)-4-(4-(4-fluorophenyl)butyl)piperazine] reads 7.37 ± 0.05.

With `[O-][S+](CCCN1CCN(c2ccc(Cl)cc2)CC1)c1ccc(F)cc1` (centres unmarked) [Compound 12], at σ1 receptor (σ1R) (relative to compound 8), the “fold reduction/loss of binding affinity at σ1 receptor” value was “greater than 45 fold”. In addition, on σ2 receptor (σ2R) (relative to compound 8), the “fold reduction/loss of binding affinity at σ2 receptor” value is given as above 71 fold.

For `Clc1ccc(N2CCN(CCCOc3ccccc3)CC2)cc1` [Compound 13], the “σ2R pKi ± SEM” value at σ2 receptor (σ2R) is 7.48 ± 0.09. With `c1ccc(OCCCN2CCN(c3ccccc3)CC2)cc1` [Compound 15], the “fold decrease in binding affinity at σ1 receptor” value at σ1 receptor (σ1R) (setting [1]) is 2–5 fold. Further, on σ2 receptor (σ2R) (setting [1]), the “fold decrease in binding affinity at σ2 receptor” value is 2–5 fold.

With `OC1(c2ccc(Cl)cc2)CC2CCC(C1)N2CCCCc1ccc(F)cc1` (centres unmarked) [Compound 17], the “fold lower affinity for σ1 receptor” value at σ1 receptor (σ1R) (relative to compound 5) was determined as 6 fold. On σ2 receptor (σ2R) (relative to compound 5), the “fold lower affinity for σ2 receptor” value was 3 fold.
